Data from ChEMBL document CHEMBL3046217, “Synthesis, antimicrobial, antioxidant, anti-inflammatory, and analgesic activities of some new 3-(2-thienyl)pyrazole-based heterocycles” (Med Chem Res, 2012).
≈ marks a conversion by molar mass, not a printed value. Calls of active or inactive are those of the source. The rule behind the calls is not given here.

Experiments:
Mus musculus = test: Analgesic activity in Mus musculus Swiss albino (mouse) assessed as inhibition of acetic acid-induced writhing at 20 mg/kg, po administered 30 min before acetic acid challenge measured for 20 min after acetic acid injection […]; format: functional, organism-based; parameters: dose 20 mg/kg
Rattus norvegicus = test: Anti-inflammatory activity in Rattus norvegicus Sprague-Dawley (rat) assessed as inhibition of carrageenan-induced paw edema at 20 mg/kg, po administered 1 hr before carrageenan challenge and measured hourly for 4-hr post drug administration by mercury plethysmometer; format: functional, organism-based; parameters: dose 20 mg/kg
[1] = test system: Radical scavenging activity; test: Antioxidant activity assessed as as DPPH radical scavenging activity by spectrophotometry; format: functional
Aspergillus niger = test: Antimicrobial activity against Aspergillus niger after 24 hr by agar diffusion method; format: functional, organism-based
Saccharomyces cerevisiae = test: Antimicrobial activity against Saccharomyces cerevisiae after 24 hr by agar diffusion method; format: functional; details: for MIC: Saccharomyces cerevisiae, 24 h
Candida albicans = test: Antimicrobial activity against Candida albicans NRRLY-477 after 24 hr by agar diffusion method; format: functional; details: for MIC: Candida albicans, NRRLY-477, 24 h
Mycolicibacterium phlei = test: Antimicrobial activity against Mycobacterium phlei after 24 hr by agar diffusion method; format: functional
Enterococcus faecalis = test: Antimicrobial activity against Enterococcus faecalis ATCC 29212 after 24 hr by agar diffusion method; format: functional; details: for MIC: Enterococcus faecalis, ATCC 29212, 24 h
Pseudomonas aeruginosa = test: Antimicrobial activity against Pseudomonas aeruginosa ATCC 29953 after 24 hr by agar diffusion method; format: functional; details: for MIC: Pseudomonas aeruginosa, ATCC 29953, 24 h
Klebsiella pneumoniae = test: Antimicrobial activity against Klebsiella pneumoniae ATCC 13883 after 24 hr by agar diffusion method; format: functional; details: for MIC: Klebsiella pneumoniae, ATCC 13883, 24 h
Enterobacter cloacae = test: Antimicrobial activity against Enterobacter cloacae ATCC 3047 after 24 hr by agar diffusion method; format: functional; details: for MIC: Enterobacter cloacae, ATCC 3047, 24 h
Salmonella typhi = test: Antimicrobial activity against Salmonella enterica subsp. enterica serovar Typhi after 24 hr by agar diffusion method; format: functional; details: for MIC: Salmonella enterica, 24 h
Bacillus spizizenii = test: Antimicrobial activity against Bacillus subtilis subsp. spizizenii ATCC 6633 after 24 hr by agar diffusion method; format: functional; details: for MIC: Bacillus spizizenii, ATCC 6633, 24 h
Staphylococcus aureus = test: Antimicrobial activity against Staphylococcus aureus ATCC 29213 after 24 hr by agar diffusion method; format: functional; details: for MIC: Staphylococcus aureus, ATCC 29213, 24 h
Escherichia coli = details: ATCC 25922
Description: Antimicrobial activity against Escherichia coli ATCC 25922 after 24 hr by agar diffusion method

## Clc1ccc(C2=NNC(c3cn(-c4ccccc4)nc3-c3cccs3)C2)cc1 (configuration not stated)
Mus musculus
  inhibition: Active
Rattus norvegicus
  inhibition: Active
[1]
  IC50: 750 µg/mL (≈ 1850 µM)
Aspergillus niger
  Activity: inactive
Saccharomyces cerevisiae
  inhibition zone (IZ): 31 mm
  MIC: 20.8 µg/mL (≈ 51.4 µM)
Candida albicans
  inhibition zone (IZ): 17 mm
  MIC: 167 µg/mL (≈ 411 µM)
Mycolicibacterium phlei
  inhibition zone (IZ): inactive
Enterococcus faecalis
  inhibition zone (IZ): 21 mm
  MIC: 41.6 µg/mL (≈ 103 µM)
Pseudomonas aeruginosa
  inhibition zone (IZ): 26 mm
  MIC: 167 µg/mL (≈ 411 µM)
Klebsiella pneumoniae
  inhibition zone (IZ): inactive
Enterobacter cloacae
  inhibition zone (IZ): 21 mm
  MIC: 83.3 µg/mL (≈ 206 µM)
Salmonella typhi
  inhibition zone (IZ): inactive
Bacillus spizizenii
  inhibition zone (IZ): 17 mm
  MIC: 333 µg/mL (≈ 823 µM)
Staphylococcus aureus
  inhibition zone (IZ): 20 mm
  MIC: 333 µg/mL (≈ 823 µM)
Escherichia coli
  IZ: inactive

## N/C(=N/N=C\c1cn(-c2ccccc2)nc1-c1cccs1)SCC(=O)Nc1cccs1
Mus musculus
  inhibition: Active
Rattus norvegicus
  inhibition: Active
[1]
  IC50: 1000 µg/mL (≈ 2140 µM)
Aspergillus niger
  Activity: inactive
Saccharomyces cerevisiae
  inhibition zone (IZ): inactive
Candida albicans
  inhibition zone (IZ): 15 mm
Mycolicibacterium phlei
  inhibition zone (IZ): inactive
Enterococcus faecalis
  inhibition zone (IZ): 21 mm
  MIC: 83.3 µg/mL (≈ 179 µM)
Pseudomonas aeruginosa
  inhibition zone (IZ): 15 mm
Klebsiella pneumoniae
  inhibition zone (IZ): 18 mm
  MIC: 167 µg/mL (≈ 357 µM)
Enterobacter cloacae
  inhibition zone (IZ): 28 mm
  MIC: 20.8 µg/mL (≈ 44.6 µM)
Salmonella typhi
  inhibition zone (IZ): inactive
Bacillus spizizenii
  inhibition zone (IZ): 23 mm
  MIC: 83.3 µg/mL (≈ 179 µM)
Staphylococcus aureus
  inhibition zone (IZ): 28 mm
  MIC: 20.8 µg/mL (≈ 44.6 µM)
Escherichia coli
  IZ: inactive

## Cc1ccc(NC(=S)N2N=C(c3ccc(Cl)cc3)CC2c2cn(-c3ccccc3)nc2-c2cccs2)cc1 (configuration not stated)
Mus musculus
  inhibition: Active
Rattus norvegicus
  inhibition: Active
[1]
  IC50: 500 µg/mL (≈ 902 µM)
Aspergillus niger
  Activity: inactive
Saccharomyces cerevisiae
  inhibition zone (IZ): inactive
Candida albicans
  inhibition zone (IZ): 15 mm
Mycolicibacterium phlei
  inhibition zone (IZ): 13 mm
Enterococcus faecalis
  inhibition zone (IZ): 21 mm
  MIC: 167 µg/mL (≈ 301 µM)
Pseudomonas aeruginosa
  inhibition zone (IZ): inactive
Klebsiella pneumoniae
  inhibition zone (IZ): 21 mm
  MIC: 333 µg/mL (≈ 601 µM)
Enterobacter cloacae
  inhibition zone (IZ): 16 mm
Salmonella typhi
  inhibition zone (IZ): inactive
Bacillus spizizenii
  inhibition zone (IZ): 21 mm
  MIC: 167 µg/mL (≈ 301 µM)
Staphylococcus aureus
  inhibition zone (IZ): 15 mm
Escherichia coli
  IZ: inactive

## C(=N/Nc1nc2nc3ccccc3nc2s1)/c1cn(-c2ccccc2)nc1-c1cccs1
Mus musculus
  inhibition: Active
Rattus norvegicus
  inhibition: Active
[1]
  IC50: 500 µg/mL (≈ 1100 µM)
Aspergillus niger
  Activity: inactive
Saccharomyces cerevisiae
  inhibition zone (IZ): 28 mm
  MIC: 41.6 µg/mL (≈ 91.7 µM)
Candida albicans
  inhibition zone (IZ): inactive
Mycolicibacterium phlei
  inhibition zone (IZ): 15 mm
Enterococcus faecalis
  inhibition zone (IZ): 21 mm
  MIC: 167 µg/mL (≈ 367 µM)
Pseudomonas aeruginosa
  inhibition zone (IZ): 28 mm
  MIC: 41.6 µg/mL (≈ 91.7 µM)
Klebsiella pneumoniae
  inhibition zone (IZ): inactive
Enterobacter cloacae
  inhibition zone (IZ): 18 mm
  MIC: 333 µg/mL (≈ 735 µM)
Salmonella typhi
  inhibition zone (IZ): inactive
Bacillus spizizenii
  inhibition zone (IZ): 26 mm
  MIC: 41.6 µg/mL (≈ 91.7 µM)
Staphylococcus aureus
  inhibition zone (IZ): 21 mm
  MIC: 333 µg/mL (≈ 735 µM)
Escherichia coli
  IZ: inactive

## O=C(/C=C/c1cn(-c2ccccc2)nc1-c1cccs1)c1ccc(Cl)cc1
Mus musculus
  inhibition: Active
Rattus norvegicus
  inhibition: Active
[1]
  IC50: 1000 µg/mL (≈ 2560 µM)
Aspergillus niger
  Activity: inactive
Saccharomyces cerevisiae
  inhibition zone (IZ): 29 mm
  MIC: 20.8 µg/mL (≈ 53.2 µM)
Candida albicans
  inhibition zone (IZ): 18 mm
  MIC: 167 µg/mL (≈ 426 µM)
Mycolicibacterium phlei
  inhibition zone (IZ): 15 mm
Enterococcus faecalis
  inhibition zone (IZ): 21 mm
  MIC: 83.3 µg/mL (≈ 213 µM)
Pseudomonas aeruginosa
  inhibition zone (IZ): 19 mm
  MIC: 333 µg/mL (≈ 853 µM)
Klebsiella pneumoniae
  inhibition zone (IZ): 18 mm
  MIC: 167 µg/mL (≈ 426 µM)
Enterobacter cloacae
  inhibition zone (IZ): 24 mm
  MIC: 41.6 µg/mL (≈ 106 µM)
Salmonella typhi
  inhibition zone (IZ): 24 mm
  MIC: 83.3 µg/mL (≈ 213 µM)
Bacillus spizizenii
  inhibition zone (IZ): 21 mm
  MIC: 167 µg/mL (≈ 426 µM)
Staphylococcus aureus
  inhibition zone (IZ): 21 mm
  MIC: 167 µg/mL (≈ 426 µM)
Escherichia coli
  IZ: inactive

## CC(=O)N1CCN(c2ccc(OCC3COC(Cn4ccnc4)(c4ccc(Cl)cc4Cl)O3)cc2)CC1 (racemic) [KETOCONAZOLE]
Saccharomyces cerevisiae
  inhibition zone (IZ): 23 mm
  MIC: 5.2 µg/mL (≈ 9.78 µM)
Candida albicans
  inhibition zone (IZ): 22 mm
  MIC: 10.4 µg/mL (≈ 19.6 µM)
Mycolicibacterium phlei
  inhibition zone (IZ): inactive
Enterococcus faecalis
  inhibition zone (IZ): inactive
Pseudomonas aeruginosa
  inhibition zone (IZ): inactive
Klebsiella pneumoniae
  inhibition zone (IZ): inactive
Enterobacter cloacae
  inhibition zone (IZ): inactive
Salmonella typhi
  inhibition zone (IZ): inactive
Bacillus spizizenii
  inhibition zone (IZ): inactive
Staphylococcus aureus
  inhibition zone (IZ): inactive
Escherichia coli
  IZ: inactive

## O=C(O)Cc1ccccc1Nc1c(Cl)cccc1Cl
Mus musculus
  inhibition: Active
Rattus norvegicus
  inhibition: Active

## O=c1oc2ccccc2cc1-c1csc(N/N=C\c2cn(-c3ccccc3)nc2-c2cccs2)n1
Mus musculus
  inhibition: Active
Rattus norvegicus
  inhibition: Active
[1]
  IC50: 25 µg/mL (≈ 50.4 µM)
Aspergillus niger
  Activity: inactive
Saccharomyces cerevisiae
  inhibition zone (IZ): inactive
Candida albicans
  inhibition zone (IZ): inactive
Mycolicibacterium phlei
  inhibition zone (IZ): inactive
Enterococcus faecalis
  inhibition zone (IZ): 22 mm
  MIC: 83.3 µg/mL (≈ 168 µM)
Pseudomonas aeruginosa
  inhibition zone (IZ): inactive
Klebsiella pneumoniae
  inhibition zone (IZ): 14 mm
Enterobacter cloacae
  inhibition zone (IZ): 14 mm
Salmonella typhi
  inhibition zone (IZ): inactive
Bacillus spizizenii
  inhibition zone (IZ): 21 mm
  MIC: 167 µg/mL (≈ 336 µM)
Staphylococcus aureus
  inhibition zone (IZ): 11 mm
Escherichia coli
  IZ: inactive

## NC(=S)N/N=C\c1cn(-c2ccccc2)nc1-c1cccs1
Mus musculus
  inhibition: Active
Rattus norvegicus
  inhibition: Active
[1]
  IC50: 500 µg/mL (≈ 1530 µM)
Aspergillus niger
  Activity: inactive
Saccharomyces cerevisiae
  inhibition zone (IZ): 30 mm
  MIC: 20.8 µg/mL (≈ 63.5 µM)
Candida albicans
  inhibition zone (IZ): 16 mm
Mycolicibacterium phlei
  inhibition zone (IZ): 16 mm
Enterococcus faecalis
  inhibition zone (IZ): 13 mm
Pseudomonas aeruginosa
  inhibition zone (IZ): 15 mm
Klebsiella pneumoniae
  inhibition zone (IZ): 28 mm
  MIC: 20.8 µg/mL (≈ 63.5 µM)
Enterobacter cloacae
  inhibition zone (IZ): 26 mm
  MIC: 20.8 µg/mL (≈ 63.5 µM)
Salmonella typhi
  inhibition zone (IZ): 28 mm
  MIC: 20.8 µg/mL (≈ 63.5 µM)
Bacillus spizizenii
  inhibition zone (IZ): 29 mm
  MIC: 20.8 µg/mL (≈ 63.5 µM)
Staphylococcus aureus
  inhibition zone (IZ): 21 mm
  MIC: 83.3 µg/mL (≈ 254 µM)
Escherichia coli
  IZ: inactive

## O=C(O)c1cn(C2CC2)c2cc(N3CCNCC3)c(F)cc2c1=O [CIPROFLOXACIN]
Saccharomyces cerevisiae
  inhibition zone (IZ): inactive
Candida albicans
  inhibition zone (IZ): inactive
Mycolicibacterium phlei
  inhibition zone (IZ): 22 mm
Enterococcus faecalis
  inhibition zone (IZ): 23 mm
Pseudomonas aeruginosa
  inhibition zone (IZ): 24 mm
Salmonella typhi
  inhibition zone (IZ): 21 mm
  MIC: 41.6 µg/mL (≈ 126 µM)
Bacillus spizizenii
  inhibition zone (IZ): 22 mm
  MIC: 10.4 µg/mL (≈ 31.4 µM)
